In patent US20100048641A1, “Use of Adenosine A1 and/or Dual A1/2ab Agonists for Production of Medicaments for Treating Diseases” (BAYER HEALTHCARE AG LAW AND PATENTS,PATENTS AND LICENSING, priority 2006, published 2010) one finds EC50 and melting point data, which are given here for twelve compounds.

The target in data set [1] is T1, adenosine A2a receptor (Homo sapiens, UniProt P29274).
T1 construct: expressed in transfected cells; host or cells: CHO (Chinese Hamster Ovary) cells, stably transfected
As to the kind of experiment: Indirect determination of adenosine agonism by gene expression (luciferase, cAMP-dependent promoter), A2a cells. In kind it is cell-based. As to conditions: CHO cells stably transfected with A2a receptor cDNA; 50% of maximum stimulation of luciferase. An excerpt: (§1) Indirect Determination of the Adenosine Agonism by Way of Gene Expression
(§2) Cells of the CHO (Chinese Hamster Ovary) permanent cell line are transfected stably with the cDNA for the adenosine receptor subtypes A1, A2a and A2b. The adenosine A1 receptors are coupled to the adenylate cyclase by way of Gi proteins, while the adenosine A2a and A2b receptors are coupled by way of Gs proteins. In correspondence with this, the formation of cAMP in the cell is inhibited or stimulated, respectively. After that, expression of the luciferase is modulated by way of a cAMP-dependent promoter. The luciferase test is optimized, with the aim of high sensitivity and reproducibility, low variance and good suitability for implementation on a robot system, by varying several test parameters, such as cell density, duration of the growth phase and the test incubation, forskolin concentration and medium composition. The following test protocol is used for pharmacologically characterizing cells and for the robot-assisted substance screening:
(§3) The stock cultures are grown, at 37° C. and under 5% CO2, in DMEM/F12 medium containing 10% FCS (foetal calf serum) and in each case split 1:10 after 2-3 days. The test cultures are seeded in 384-well plates with 2000 cells per well and grown at 37° C. for approx. 48 hours. The medium is then replaced with a physiological sodium chloride solution (130 mM sodium chloride, 5 mM potassium chloride, 2 mM calcium chloride, 20 mM HEPES, 1 mM magnesium chloride hexahydrate, 5 mM sodium bicarbonate, pH 7.4). The substances to be tested, which are dissolved in DMSO, are pipetted into the test cultures (maximum final concentration of DMSO in the test mixture: 0.5%) in a dilution series of from 1.1×10^−11M to 3×10^−6M (final concentration). 10 minutes later, forskolin is added to the A1 cells and all the cultures are subsequently incubated at 37° C. for four hours. After that, 35 μl of a solution which is composed of 50% lysis reagent (30 mM disodium hydrogenphosphate, 10% glycerol, 3% TritonX100, 25 mM TrisHCl, 2 mM dithiotreitol (DTT), pH 7.8) and 50% luciferase substrate solution (2.5 mM ATP, 0.5 mM luciferin, 0.1 mM coenzyme A, 10 mM tricine, 1.35 mM magnesium sulfate, 15 mM DTT, pH 7.8) are added to the test cultures, which are shaken for approx. 1 minute and the luciferase activity is measured using a camera system. The EC50 values are determined, i.e., the concentrations at which 50% of the luciferase answer is inhibited in the case of the A1 cell, and, respectively, 50% of the maximum stimulation with the corresponding substance is achieved in the case of the A2b and A2a cells. […] Pharmacol., 357 (1998), 1-9).
(§4) Table 1 below lists the EC50 values of representative working examples of compounds of the formula (IA) for the receptor stimulation on adenosine A1, A2a and A2b receptor subtypes: […]

Data set [2] deals with T2, adenosine A2b receptor (Homo sapiens, UniProt P29275).
T2 construct: expressed in transfected cells; host or cells: CHO (Chinese Hamster Ovary) cells, stably transfected
T2 sequence (P29275 1-332): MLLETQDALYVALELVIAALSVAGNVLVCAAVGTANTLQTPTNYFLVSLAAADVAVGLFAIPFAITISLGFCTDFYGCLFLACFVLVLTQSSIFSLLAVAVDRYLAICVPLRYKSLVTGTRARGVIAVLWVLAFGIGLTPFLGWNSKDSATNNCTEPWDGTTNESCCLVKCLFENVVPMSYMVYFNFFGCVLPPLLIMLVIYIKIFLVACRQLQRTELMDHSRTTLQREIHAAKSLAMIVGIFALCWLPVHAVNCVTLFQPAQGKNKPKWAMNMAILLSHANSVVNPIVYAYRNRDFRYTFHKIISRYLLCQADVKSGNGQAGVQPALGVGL
Put plainly: Indirect determination of adenosine agonism by gene expression (luciferase, cAMP-dependent promoter), A2b cells. The class given is cell-based. The settings on record: CHO cells stably transfected with A2b receptor cDNA; 50% of maximum stimulation of luciferase.
Excerpt: as §1, §2, §3, §4

Data set [3] concerns the target T3, adenosine A1 receptor (Homo sapiens, UniProt P30542).
T3 construct: expressed in transfected cells; host or cells: CHO (Chinese Hamster Ovary) cells, stably transfected
T3 sequence (P30542 1-326): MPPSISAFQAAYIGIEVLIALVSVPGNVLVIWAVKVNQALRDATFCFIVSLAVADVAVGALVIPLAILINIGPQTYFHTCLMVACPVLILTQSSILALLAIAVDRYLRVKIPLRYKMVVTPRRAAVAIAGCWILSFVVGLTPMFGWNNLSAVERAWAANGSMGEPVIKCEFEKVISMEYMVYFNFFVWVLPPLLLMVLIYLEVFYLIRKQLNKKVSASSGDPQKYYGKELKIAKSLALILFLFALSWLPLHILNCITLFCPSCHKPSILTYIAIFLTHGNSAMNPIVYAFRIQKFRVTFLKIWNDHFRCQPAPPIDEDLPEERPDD
Put plainly: Indirect determination of adenosine agonism by gene expression (luciferase, cAMP-dependent promoter), A1 cells. In kind it is cell-based. The settings on record: CHO cells stably transfected with A1 receptor cDNA; 1 μM forskolin; concentration at which 50% of the luciferase answer is inhibited.
Excerpt: as §1, §2, §3, §4

Structures can show the parent of a compound that is named as a salt.

T1 sequence (P29274 whole entry): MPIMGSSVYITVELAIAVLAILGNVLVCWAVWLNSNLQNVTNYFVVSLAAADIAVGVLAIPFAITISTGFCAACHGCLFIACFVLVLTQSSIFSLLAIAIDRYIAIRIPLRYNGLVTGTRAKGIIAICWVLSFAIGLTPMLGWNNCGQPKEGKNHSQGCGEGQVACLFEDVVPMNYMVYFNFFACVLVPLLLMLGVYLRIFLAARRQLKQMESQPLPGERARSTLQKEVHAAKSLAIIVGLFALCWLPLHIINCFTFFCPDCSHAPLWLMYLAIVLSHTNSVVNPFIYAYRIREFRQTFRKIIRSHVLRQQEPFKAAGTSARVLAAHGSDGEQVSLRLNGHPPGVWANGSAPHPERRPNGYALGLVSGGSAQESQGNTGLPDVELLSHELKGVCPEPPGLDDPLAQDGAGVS

As a reminder, the EC50 is the concentration needed to bring the measured effect to its halfway point. Read a low EC50 as greater potency. On to `COCCOc1ccc(-c2c(C#N)c(N)nc(SCc3csc(Nc4ccc(C)cc4)n3)c2C#N)cc1` [Example 26], for which the EC50 is more than 3000 nM in data set [1], 74 nM in data set [2] and 23 nM in data set [3].

Broadly, the melting point is the temperature of the solid-liquid transition. With `N#Cc1c(N)nc(SCc2csc(Nc3cccc(Cl)c3)n2)c(C#N)c1-c1ccc(OCC(O)CO)cc1` (stereo not shown) [Example 1, 2-Amino-6-[({2-[(3-chlorophenyl)amino]-1,3-thiazol-4-yl}methyl)thio]-4-[4-(2,3-dihydroxypropoxy)phenyl]pyridine-3,5-dicarbonitrile], the melting point is 192 to 194 °C.

Consider `N#Cc1c(N)nc(SCc2csc(Nc3ccc(F)cc3F)n2)c(C#N)c1-c1ccc(OCCO)cc1` [Example 10, 2-Amino-6-[({2-[(2,4-difluorophenyl)amino]-1,3-thiazol-4-yl}methyl)thio]-4-[4-(2-hydroxyethoxy)phenyl]pyridine-3,5-dicarbonitrile], for which the results for the EC50 in data set [1], in data set [2] and in data set [3] were more than 200 nM, 1 nM and 2 nM, respectively.

Consider `Cc1cccc(Nc2nc(CSc3nc(N)c(C#N)c(-c4ccc(OCC(O)CO)cc4)c3C#N)cs2)c1` (stereo not shown) [Example 2], for which the results for the EC50 in data set [1], in data set [2] and in data set [3] were 747 nM, 6.1 nM and 9.9 nM, respectively.

Take `COc1cc(Nc2nc(CSc3nc(N)c(C#N)c(-c4ccc(OC[C@@H](O)CO)cc4)c3C#N)cs2)ccc1F` [Example 39]: the results for the EC50 in data set [1], in data set [2] and in data set [3] were 1200 nM, 1.4 nM and 0.3 nM, respectively.

As to `N#Cc1c(N)nc(SCc2csc(Nc3cccc(F)c3)n2)c(C#N)c1-c1ccc(OC[C@@H](O)CO)cc1` [Example 44], the EC50 stood at 140 nM in data set [1], 0.3 nM in data set [2] and 0.6 nM in data set [3].

Take `N#Cc1c(N)nc(SCc2csc(Nc3ccc(F)cc3)n2)c(C#N)c1-c1ccc(OCCO)cc1` [Example 8, 2-Amino-6-[({2-[(4-fluorophenyl)amino]-1,3-thiazol-4-yl}methyl)thio]-4-[4-(2-hydroxyethoxy)-phenyl]pyridine-3,5-dicarbonitrile]: the 50% effective concentration (EC50) stood at 300 nM in data set [1], 1 nM in data set [2] and 1 nM in data set [3].

As for `N#Cc1c(N)nc(SCc2csc(Nc3cccc(Cl)c3)n2)c(C#N)c1-c1ccc(OC[C@@H](O)CO)cc1` [Example 35], the concentration for a half-maximal effect (EC50) in data set [1] amounted to 142 nM; in data set [2] it was 0.3 nM; in data set [3], 0.4 nM.

As to `N#Cc1ccc(Nc2nc(CSc3nc(N)c(C#N)c(-c4ccc(OCCO)cc4)c3C#N)cs2)cc1` [Example 21], the EC50 in data set [1] stood at 103 nM; in data set [2], 0.5 nM; in data set [3], 0.7 nM.

Regarding `N#Cc1c(N)nc(SCc2csc(Nc3ccc(F)c(Cl)c3)n2)c(C#N)c1-c1ccc(OC[C@@H](O)CO)cc1` [Example 48], the EC50 in data set [1] came out at 140 nM; in data set [2], 0.1 nM; in data set [3] it was 0.4 nM.

For `N#Cc1c(N)nc(SCc2csc(Nc3ccc(C(=O)O)cc3)n2)c(C#N)c1-c1ccc(OCCO)cc1` [Example 13, 4-({4-[({6-Amino-3,5-dicyano-4-[4-(2-hydroxyethoxy)phenyl]pyridin-2-yl}thio)methyl]-1,3-thiazol-2-yl}amino)benzoic acid], the values for the EC50 in data set [1], in data set [2] and in data set [3] were 236 nM, 0.1 nM and 0.2 nM, respectively.

Regarding `N#Cc1c(N)nc(SCc2csc(Nc3ccc(F)cc3)n2)c(C#N)c1-c1ccc(OCCN)cc1` [Example 70, 2-Amino-4-[4-(2-aminoethoxy)phenyl]-6-[({2-[(4-fluorophenyl)amino]-1,3-thiazol-4-yl}methyl)-thio]pyridine-3,5-dicarbonitrile hydrochloride], the results for the concentration for a half-maximal effect (EC50) in data set [1], in data set [2] and in data set [3] were more than 3000 nM, 28 nM and 2.3 nM, respectively.
